Tested on: immortalized human sebocytes resulting from the SZ95 line
Assay: Lipogenesis in cultured immortalized human sebocytes (Nile Red fluorescence, neutral lipids)
Type: cell-based
Conditions: for Inhibition of lipogenesis: Effectiveness (% with respect to the control): 0.0004% in culture medium, 2 days of treatment, neutral lipids
Description: Various ascorbic acid compounds were tested on a model of cultured immortalized human sebocytes resulting from the SZ95 line described in Zouboulis, C. C., Seltmann, H., Neitzel, H. and Orfanos, C. E., Establishment and Characterization of an Immortalized Human Sebaceous Gland Cell Line, J. Invest. Dermatol., 113, 1011-1020 (1999).
These compounds were composed of L-ascorbic acid 2-O-α-D-glucopyranoside (hereinafter ascorbyl glucoside), of ascorbic acid, of ascorbyl palmitate and of magnesium ascorbyl phosphate.
The test consisted in measuring the amount of lipids produced by the sebocytes of the line (at confluence) in the presence or absence of active agents diluted in the culture medium. After 2 days of treatment, the adherent cells are treated with Nile Red (1 μg/ml). The content of lipids is subsequently quantified by measuring the fluorescence of the dye (two excitation/emission pairs: 485-540 nm for the neutral lipids and 540-620 nm for the nonneutral lipids). The results are given for the neutral lipids (components of the sebum).
The experiment is carried out in octuplicate (tested and control products) in a 96-well plate.

Row | Structure (SMILES) | Inhibition of lipogenesis: Effectiveness (% with respect to the control) | other results
1 | O=C1O[C@H]([C@@H](O)CO)C([O-])=C1OP(=O)([O-])[O-].O=C1O[C@H]([C@@H](O)CO)C([O-])=C1OP(=O)([O-])[O-].[Mg+2].[Mg+2].[Mg+2] [Magnesium ascorbyl phosphate, magnesium ascorbyl phosphate] | ns | –
2 | O=C1O[C@H]([C@@H](O)CO)C(O)=C1O [Ascorbic acid, ascorbic acid] | ns | –
3 | O=C1O[C@H]([C@@H](O)CO)C(O)=C1O[C@H]1O[C@H](CO)[C@@H](O)[C@H](O)[C@H]1O [Ascorbyl glucoside, L-ascorbic acid 2-O-α-D-glucopyranoside] | – | effective concentration for reducing lipogenesis relative to ascorbic acid (comparable level of inhibition) (SZ95 sebocytes): ten times lower
4 | CCCCCCCCCCCCCCCC(=O)OC[C@H](O)[C@H]1OC(=O)C(O)=C1O [Ascorbyl palmitate, ascorbyl palmitate] | – | effect on lipogenesis (in words) (SZ95 sebocytes): stimulating (and not inhibiting) effect
